Our source for the IC50 values is ChEMBL document CHEMBL3616452 (Eur J Med Chem, 2015).

The structures appear in SMILES notation.

What is called IC50 is the midpoint of a concentration-inhibition curve.

The assay addresses Nucleoprotein (Influenza A virus (strain A/Wilson-Smith/1933 H1N1), UniProt P15682, S377G). Description: Binding affinity to Influenza A virus (A/WSN/1933(H1N1)) nucleoprotein S377G mutant transfected in 293T cells assessed as inhibition of RNA dependent RNA polymerase activity. The format is cell-based, Influenza A virus (A/Weiss/1943(H1N1)).

Regarding `Cn1c(=O)c2c(-c3ccccc3)n3c(c2n(C)c1=O)C(c1ccccc1F)OCC3(C)C` (configuration not stated), the IC50 worked out at 1.7 µM.
The value for `Cc1onc(-c2ccccc2Cl)c1C(=O)N1CCN(c2ccc([N+](=O)[O-])cc2)CC1` was 0.3 µM.
